Patent publication US7932396B2, “2-pyridinylcycloalkylbenzamide derivatives and their use as fungicides” (Bayer Cropscience AG, priority 2005, dated 2011)

Assays:
[1] = test system: Botrytis cinerea; experiment: In vivo test on Botrytis cinerea (gherkin grey mould) on gherkin plants; conditions: 330 ppm; comparison compounds of WO 01/11965
Description: (§1) The active ingredients tested are prepared by homogenization in a mixture of DMSO (dimethylsulfoxid)/acetone/tween/water. This suspension is then diluted with water to obtain the desired active material concentration.
Gherkin plants (Petit Vert de Paris variety) in starter cups, sown on a 50/50 peat soil-pozzolana substrate and grown at 18-20° C., are treated at the cotyledon Z11 stage by spraying with the aqueous suspension described above. Plants, used as controls, are treated with an aqueous solution not containing the active material.
After 24 hours, the plants are contaminated by depositing drops of an aqueous suspension of Botrytis cinerea spores (150,000 spores per ml) on upper surface of the leaves. The spores are collected from a 15-day-old culture and are suspended in a nutrient solution composed of: • 20 g/L of gelatin • 50 g/L of cane sugar • 2 g/L of NH4NO3 • 1 g/L of KH2PO4
The contaminated gherkin plants are settled for 5/7 days in a climatic room at 15-11° C. (day/night) and at 80% relative humidity.
Grading is carried out 5/7 days after the contamination, in comparison with the control plants.

[2] = test system: Alternaria brassicae; experiment: In vivo test on Alternaria brassicae (leaf spot of crucifers) on radish plants; conditions: 330 ppm; comparison compounds of WO 01/11965
Description: as §1
Radish plants (Pernot variety) in starter cups, sown on a 50/50 peat soil-pozzolana substrate and grown at 18-20° C., are treated at the cotyledon stage by spraying with the aqueous suspension described above.
Plants, used as controls, are treated with an aqueous solution not containing the active material.
After 24 hours, the plants are contaminated by spraying them with an aqueous suspension of Alternaria brassicae spores (40,000 spores per cm^3). The spores are collected from a 12-13-day-old culture.
The contaminated radish plants are incubated for 6-7 days at about 18° C., under a humid atmosphere.
Grading is carried out 6 to 7 days after the contamination, in comparison with the control plants.

[3] = test system: Peronospora parasitica; experiment: Efficacy against Peronospora parasitica; assay type: in vivo; conditions: 330 ppm; comparison compound of WO 01/11965

| SMILES | effectiveness on Botrytis cinerea [1] | effectiveness on Alternaria brassicae [2] | efficacy against Peronospora parasitica [3] |
| --- | --- | --- | --- |
| CCNC(=O)C(Cc1ncc(C(F)(F)F)cc1Cl)NC(=O)c1ccccc1 (stereo not drawn) [compound 304, N-{1-ethylcarbamoyl-2-[3-chloro-5-(trifluoromethyl)-2-pyridinyl]-ethyl}-benzamide] | zero effectiveness |  |  |
| CNC(=O)C(Cc1ncc(C(F)(F)F)cc1Cl)NC(=O)c1ccc(OC)cc1 (stereo not drawn) [compound 315, N-{1-methylcarbamoyl-2-[3-chloro-5-(trifluoromethyl)-2-pyridinyl]ethyl}-4-methoxybenzamide] | zero effectiveness |  |  |
| CCNC(=O)C(Cc1ncc(C(F)(F)F)cc1Cl)NC(=O)c1cccc([N+](=O)[O-])c1 (stereo not drawn) [compound 307, N-{1-ethylcarbamoyl-2-[3-chloro-5-(trifluoromethyl)-2-pyridinyl]ethyl}-3-nitrobenzamide] | zero effectiveness | poor effectiveness |  |
| CCNC(=O)C(Cc1ncc(C(F)(F)F)cc1Cl)NC(=O)c1ccc(Cl)cc1 (stereo not drawn) [compound 306, N-{1-ethylcarbamoyl-2-[3-chloro-5-(trifluoromethyl)-2-pyridinyl]ethyl}-4-chlorobenzamide] | zero effectiveness |  |  |
| CNC(=O)C(Cc1ncc(C(F)(F)F)cc1Cl)NC(=O)c1ccccc1 (stereo not drawn) [compound 314, N-{1-methylcarbamoyl-2-[3-chloro-5-(trifluoromethyl)-2-pyridinyl]ethyl}-benzamide] | zero effectiveness |  |  |
| O=C(Cc1cccs1)NCc1ncc(C(F)(F)F)cc1Cl [compound 101, N-{[3-chloro-5-(trifluoromethyl)-2-pyridinyl]methyl}-5-thienylacetamide] | no efficacy | poor efficacy | no efficacy |
| CCNC(=O)C(Cc1ncc(C(F)(F)F)cc1Cl)NC(=O)c1ccccc1Br (stereo not drawn) [compound 310, N-{1-ethylcarbamoyl-2-[3-chloro-5-(trifluoromethyl)-2-pyridinyl]ethyl}-2-bromobenzamide] | zero effectiveness |  |  |
| CNC(=O)C(Cc1ncc(C(F)(F)F)cc1Cl)NC(=O)c1ccc(-c2ccccc2)cc1 (stereo not drawn) [compound 316, N-{1-methylcarbamoyl-2-[3-chloro-5-(trifluoromethyl)-2-pyridinyl]-ethyl}-4-phenylbenzamide] | zero effectiveness | poor effectiveness |  |
